Like-named read-outs stand apart in the source and are kept apart here.

Consider 32 compounds from patent US20140088052A1, “CHALCONE DERIVATIVES AS NRF2 ACTIVATORS” (THE JOHNS HOPKINS UNIVERSITY, priority 2011, published 2014).

This test has as its system Nrf2. The experiment in a line: Expression of Nrf2-regulated genes GCLM and NQO1 by qRT-PCR in Beas-2B cells (screen). In kind it is cell-based, human. The note with it: 16 h, DMSO = 1.0 (Table 2); for fold induction at 10 µM: Homo sapiens. Here is the method:
To investigate the potency of the presently disclosed chalcone derivatives to activate Nrf2, the expression of antioxidant genes, GCLM and NADPH-NQO1, two well characterized transcriptional targets of Nrf2, were measured as surrogate markers. By “marker” is meant any protein or polynucleotide having an alteration in expression level or activity that is associated with a disease, disorder, or condition. It has been previously shown that oxidants or small molecule activators of Nrf2 increase GCLM and NQO1 in cells or tissues of wild-type, but not in Nrf2-deficient mice. Osburn, W. O., et al., Genetic or pharmacologic amplification of Nrf2 signaling inhibits acute inflammatory liver injury in mice. Toxicol. Sci. 2008, 104(1), 218-227. […]
RNA was isolated and gene expression was measured after 16 h.
Total RNA was extracted from cells/tissue using Qiagen RNeasy kit (Qiagen Corporation, Valencia, Calif.) and reverse transcription was performed by using random hexamers and MultiScribe reverse transcriptase according to the manufacturer's recommendations (Applied Biosystems, Foster City, Calif., USA). Quantitative real-time RT-PCR analyses of Nrf2, NQO1, HO1, and GCLM were performed by using Assay-on-Demand primers and probe sets from Applied Biosystems. Assays were performed using the ABI 7000 Taqman system (Applied Biosystems, Foster City, Calif.). β-actin was used for normalization.

Where [1] appears, read: BEAS-2B, read-out: Relative Fold Change GCLM.
The mark [2] stands for this setting: BEAS-2B, read-out: Relative Fold Change NQO1.
Where [3] appears, read: read-out: Relative Fold Change GCLM.
The mark [4] stands for this setting: read-out: Relative Fold Change NQO1.

Regarding `COc1ccc(C(=O)/C=C/c2ccc(C(F)(F)F)cc2)cc1OC` [Compound 4h], the fold induction at 10 µM reads like this: under setting [1], 3.5; under setting [2], 2.7.

`O=C(/C=C/c1ccc(C(F)(F)F)cc1)c1ccccc1` [Compound 4a, (E)-1-phenyl-3-(4-(trifluoromethyl)phenyl)prop-2-en-1-one]: the fold induction at 10 µM under setting [1] came out at 3.31 and the fold induction at 10 µM under setting [2] was 2.9.

For `COc1cc(C(=O)/C=C/c2cccc(C(F)(F)F)c2)cc(OC)c1OC` [Compound 3j, (E)-1-(3,4,5-trimethoxyphenyl)-3-(3-(trifluoromethyl)phenyl)prop-2-en-1-one], the fold induction at 10 µM by setting is: under setting [1], 1.7; under setting [2], 0.8.

For the compound `COc1cc(C(=O)/C=C/c2ccccc2)cc(OC)c1OC` [Compound 1j, (E)-3-phenyl-1-(3,4,5-trimethoxyphenyl)prop-2-en-1-one], the fold induction at 10 µM was determined as 0.7 under setting [1] and 0.7 under setting [2].

`COc1ccccc1C(=O)/C=C/c1ccccc1` [Compound 1b, (E)-1-(2-methoxyphenyl)-3-phenylprop-2-en-1-one]: the fold induction at 10 µM stood at 3.6 under setting [1] and 3.2 under setting [2].

For `COc1ccc(OC)c(C(=O)/C=C/c2ccccc2)c1` [Compound 1g, (E)-3-phenyl-1-(2,5-dimethoxyphenyl)prop-2-en-1-one], the fold induction at 10 µM is 3 under setting [1] and 2.6 under setting [2].

Turning to `COc1cc(OC)c(C(=O)/C=C/c2ccccc2)c(OC)c1` [Compound 1l, (E)-3-phenyl-1-(2,4,6-trimethoxyphenyl)prop-2-en-1-one], the fold induction at 10 µM stood at 3.1 under setting [1] and 1.8 under setting [2].

`COc1ccc(OC)c(C(=O)/C=C/c2ccccc2[N+](=O)[O-])c1` [Compound 5g]: the fold induction at 10 µM was 1.7 under setting [1] and 0.7 under setting [2].

Consider `COc1ccc(C(=O)/C=C/c2cccc(C(F)(F)F)c2)c(OC)c1OC` [Compound 3k, (E)-1-(2,3,4-trimethoxyphenyl)-3-(3-(trifluoromethyl)phenyl)prop-2-en-1-one], for which the fold induction at 10 µM worked out at 3.6 under setting [1] and 3.2 under setting [2].

Take `COc1cc(C(=O)/C=C/c2ccccc2C(F)(F)F)cc(OC)c1OC` [Compound 2j, (E)-1-(3,4,5,S.trimethoxyphenyl)-3-(2-(trifluoromethyl)phenyl)prop-2-en-1-one]: the fold induction at 10 µM under setting [1] came to 3 and the fold induction at 10 µM under setting [2] amounted to 3.1.

Regarding `COc1ccc(OC)c(C(=O)/C=C/c2ccccc2C(F)(F)F)c1` [Compound 2g, (E)-1-(2,5-dimethoxyphenyl)-3-(2-(trifluoromethyl)phenyl)prop-2-en-1-one], the fold induction at 10 µM came out at 4.4 under setting [1] and 2.7 under setting [2].

Consider `COc1ccccc1C(=O)/C=C/c1cccc(C(F)(F)F)c1` [Compound 3b, (E)-1-(2-methoxyphenyl)-3-(3-(trifluoromethyl)phenyl)prop-2-en-1-one], for which the fold induction at 10 µM came out at 3.9 under setting [1] and 2.9 under setting [2].

Regarding `COc1cccc(OC)c1C(=O)/C=C/c1ccccc1` [Compound 1f, (E)-3-phenyl-1-(2,6-dimethoxyphenyl)prop-2-en-1-one], the fold induction at 10 µM stood at 2.5 under setting [1] and 1.9 under setting [2].

In the case of `COc1cccc(C(=O)/C=C/c2ccc(C(F)(F)F)cc2)c1` [Compound 4c, (E)-1-(3-methoxyphenyl)-4-(4-(trifluoromethyl)phenyl)prop-2-en-1-one], the fold induction at 10 µM worked out at 2.9 under setting [1] and 3.1 under setting [2].

Consider `COc1ccc(C(=O)/C=C/c2cccc(C(F)(F)F)c2)c(OC)c1` [Compound 3e, (E)-1-(2,4-dimethoxyphenyl)-3-(3-(trifluoromethyl)phenyl)prop-2-en-1-one], for which the fold induction at 10 µM is 4.6 under setting [1] and 4 under setting [2].

As for `COc1ccc(C(=O)/C=C/c2ccccc2)c(OC)c1OC` [Compound 1k, (E)-3-phenyl-1-(2,3,4.trimethoxyphenyl)prop-2-en-1-one], where the note is “10 μM”, the “Relative Fold Change GCLM” value is 2.4 and the “Relative Fold Change NQO1” value is on record as 2.4.

As to `COc1cc(OC)c(C(=O)/C=C/c2ccc(C(F)(F)F)cc2)c(OC)c1` [Compound 4k], the fold induction at 10 µM reads like this: under setting [1], 2.4; under setting [2], 2.4.

For the compound `COc1cccc(C(=O)/C=C/c2ccccc2)c1` [Compound 1c, (E)-1-(3-methoxyphenyl)-3-phenylprop-2-en-1-one], the fold induction at 10 µM by setting is: under setting [1], 1.5; under setting [2], 2.4.

Take `COc1cc(C(=O)/C=C/c2ccc(C(F)(F)F)cc2)cc(OC)c1OC` [Compound 4i]: the fold induction at 10 µM was 4.1 under setting [1] and 3.7 under setting [2].

As for `COc1cc(OC)cc(C(=O)/C=C/c2ccccc2)c1` [Compound 1i, (E)-3-phenyl-1-(3,5-dimethoxyphenyl)prop-2-en-1-one], the fold induction at 10 µM worked out at 3 under setting [1] and 2.4 under setting [2].

For `COc1cccc(OC)c1C(=O)/C=C/c1ccc(C(F)(F)F)cc1` [Compound 4f, (E)-1-(2,6-dimethoxyphenyl)-3-(4-(trifluoromethyl)phenyl)prop-2-en-1-one], the fold induction at 10 µM is, setting by setting: under setting [1], 1.4; under setting [2], 0.6.

Consider `COc1cccc(OC)c1C(=O)/C=C/c1cccc(C(F)(F)F)c1` [Compound 3f, (E)-1-(2,6-dimethoxyphenyl)-3-(3-(trifluoromethyl)phenyl)prop-2-en-1-one], for which the fold induction at 10 µM is 1.8 under setting [1] and 0.6 under setting [2].

For the compound `COc1ccc(C(=O)/C=C/c2ccccc2)cc1` [Compound 1d, (E)-1-(4-methoxyphenyl)-3-phenylprop-2-en-1-one], the fold induction at 10 µM runs as follows: under setting [1], 1.9; under setting [2], 2.8.

Take `COc1ccc(C(=O)/C=C/c2ccccc2[N+](=O)[O-])c(OC)c1OC` [Compound 5k, (E)-1-(2,3,4-trimethoxyphenyl)-3-(2-nitrophenyl)prop-2-en-1-one]: the fold induction at 10 µM was determined as 2.9 under setting [1] and 3.3 under setting [2].

For `O=C(/C=C/c1cccc(C(F)(F)F)c1)c1ccccc1` [Compound 3a, (E)-1-phenyl-3-(3-(trifluoromethyl)phenyl)prop-2-en-1-one], the fold induction at 10 µM runs as follows: under setting [1], 3.1; under setting [2], 2.8.

In the case of `COc1ccc(C(=O)/C=C/c2cccc(C(F)(F)F)c2)cc1` [Compound 3d, (E)-1-(4-methoxyphenyl)-3-(3-(trifluoromethyl)phenyl)prop-2-en-1-one], the fold induction at 10 µM by setting is: under setting [1], 2.7; under setting [2], 2.8.

As for `COc1ccc(C(=O)/C=C/c2ccccc2)cc1OC` [Compound 1h, (E)-3-phenyl-1-(3,4-dimethoxyphenyl)prop-2-en-1-one], the fold induction at 10 µM stood at 2.3 under setting [3] and 2.5 under setting [4].

Regarding `COc1cc(OC)c(C(=O)/C=C/c2cccc(C(F)(F)F)c2)c(OC)c1` [Compound 3l, (E)-1-(2,4,6-trimethoxyphenyl)-3-(3-(trifluoromethyl)phenyl)prop-2-en-1-one], the fold induction at 10 µM is, setting by setting: under setting [1], 1.4; under setting [2], 0.7.

Consider `COc1ccc(C(=O)/C=C/c2cccc(C(F)(F)F)c2)cc1OC` [Compound 3h, (E)-1-(3,4-dimethoxyphenyl)-3-(3-(trifluoromethyl)phenyl)prop-2-en-1-one], for which the fold induction at 10 µM runs as follows: under setting [1], 4.1; under setting [2], 2.9.

As to `COc1ccc(OC)c(C(=O)/C=C/c2cccc(C(F)(F)F)c2)c1` [Compound 3g, (E)-1-(2,5-dimethoxyphenyl)-3-(3-(trifluoromethyl)phenyl)prop-2-en-1-one], the fold induction at 10 µM is, setting by setting: under setting [1], 1.8; under setting [2], 0.8.

Take `COc1ccc(C(=O)/C=C/c2ccccc2C(F)(F)F)cc1OC` [Compound 2h, (E)-1-(3,4-dimethoxyphenyl)-3-(2-(trifluoromethyl)phenyl)prop-2-en-1-one]: the fold induction at 10 µM reads like this: under setting [1], 4.3; under setting [2], 2.7.

With `COc1ccc(C(=O)/C=C/c2ccccc2)c(OC)c1` [Compound 1e, (E)-3-phenyl-1-(2,4-dimethoxyphenyl)prop-2-en-1-one], the fold induction at 10 µM under setting [3] came to 2.7 and the fold induction at 10 µM under setting [4] came out at 2.8.
